Laboratory results from PubChem BioAssay AID1259407 (Chemical Carcinogenesis Research Information System (CCRIS), 2018).
Active and inactive are the calls of the source. How the calls were made is not given here.

Test system: CCRIS mutagenicity, Ames/micronucleus/aberration tests
Assay: CCRIS mutagenicity studies
[1] = Test System: AMES SALMONELLA TYPHIMURIUM, Strain/Indicator: TA100, Metabolic Activation: NONE, Method: STANDARD PLATE
[2] = Test System: AMES SALMONELLA TYPHIMURIUM, Strain/Indicator: TA100, Metabolic Activation: RAT, LIVER, S-9, AROCLOR 1254, Method: STANDARD PLATE
[3] = Test System: AMES SALMONELLA TYPHIMURIUM, Strain/Indicator: TA1535, Metabolic Activation: NONE, Method: STANDARD PLATE
[4] = Test System: AMES SALMONELLA TYPHIMURIUM, Strain/Indicator: TA1535, Metabolic Activation: RAT, LIVER, S-9, AROCLOR 1254, Method: STANDARD PLATE
[5] = Test System: AMES SALMONELLA TYPHIMURIUM, Strain/Indicator: TA98, Metabolic Activation: NONE, Method: STANDARD PLATE
[6] = Test System: AMES SALMONELLA TYPHIMURIUM, Strain/Indicator: TA98, Metabolic Activation: RAT, LIVER, S-9, AROCLOR 1254, Method: STANDARD PLATE
[7] = Test System: AMES SALMONELLA TYPHIMURIUM, Strain/Indicator: TA1537, Metabolic Activation: NONE, Method: STANDARD PLATE
[8] = Test System: AMES SALMONELLA TYPHIMURIUM, Strain/Indicator: TA1537, Metabolic Activation: RAT, LIVER, S-9, AROCLOR 1254, Method: STANDARD PLATE

Q: `Oc1cccc2cc3cccc(O)c3c(O)c12` was tested. Which mutagenic call [1] did it give?
A: The mutagenic call was “inactive; negative”.

Q: What about the mutagenic call [2] of the same compound?
A: Its mutagenic call is “inactive; negative”.

Q: And the mutagenic call [3]?
A: The mutagenic call was “inactive; negative”.

Q: What about the mutagenic call [4] of the same compound?
A: The mutagenic call was “inactive; negative”.

Q: What about the mutagenic call (Test System: E. COLI, Strain/Indicator: WP2 UVRA, Metabolic Activation: HAMSTER, LIVER, S-9, AROCLOR 1254, Method: STANDARD PLATE) of the same compound?
A: Its mutagenic call is “inactive; negative”.

Q: And the mutagenic call (Test System: E. COLI, Strain/Indicator: WP2 UVRA, Metabolic Activation: HAMSTER, LIVER, S-9, Method: STANDARD PLATE)?
A: The mutagenic call was “inactive; negative”.

Q: And the mutagenic call (Test System: E. COLI, Strain/Indicator: WP2 UVRA, Metabolic Activation: MOUSE, LIVER, S-9, AROCLOR 1254, Method: STANDARD PLATE)?
A: The mutagenic call was “inactive; negative”.

Q: And the mutagenic call (Test System: E. COLI, Strain/Indicator: WP2 UVRA, Metabolic Activation: MOUSE, LIVER, S-9, Method: STANDARD PLATE)?
A: Its mutagenic call is “inactive; negative”.

Q: What about the mutagenic call (Test System: E. COLI, Strain/Indicator: WP2 UVRA, Metabolic Activation: NONE, Method: STANDARD PLATE) of the same compound?
A: The mutagenic call was “inactive; negative”.

Q: What about the mutagenic call (Test System: E. COLI, Strain/Indicator: WP2 UVRA, Metabolic Activation: RAT, LIVER, S-9, AROCLOR 1254, Method: STANDARD PLATE) of the same compound?
A: Its mutagenic call is “inactive; negative”.

Q: And the mutagenic call (Test System: E. COLI, Strain/Indicator: WP2 UVRA, Metabolic Activation: RAT, LIVER, S-9, Method: STANDARD PLATE)?
A: Its mutagenic call is “inactive; negative”.

Q: `O=C1c2c(O)ccc(O)c2C(=O)c2c(NCCO)ccc(NCCO)c21` was tested. Which mutagenic call (Test System: MOUSE LYMPHOMA, Strain/Indicator: L5178Y (TK+/TK-), Metabolic Activation: NONE, Method: SUSPENSION/PLATE) did it give?
A: The mutagenic call was “active; positive”.

Q: Which results are given for `ClC1C(Cl)C(Cl)C(Cl)C(Cl)C1Cl` (stereo not given)?
A: mutagenic call (End Point: IN VITRO CHROMOSOMAL ABERRATIONS, Test System: HUMAN PERIPHERAL BLOOD LYMPHOCYTES, Metabolic Activation: NONE): active; positive (structural changes); mutagenic call (Test System: AMES SALMONELLA TYPHIMURIUM, Strain/Indicator: TA97, Metabolic Activation: NONE, Method: STANDARD PLATE): inactive; negative; mutagenic call (Test System: AMES SALMONELLA TYPHIMURIUM, Strain/Indicator: TA97, Metabolic Activation: RAT, LIVER, S-9, AROCLOR 1254, Method: STANDARD PLATE): inactive; negative; mutagenic call [5]: inactive; negative; mutagenic call [1]: inactive; negative; mutagenic call [2]: inactive; negative; mutagenic call (Test System: AMES SALMONELLA TYPHIMURIUM, Strain/Indicator: TA102, Metabolic Activation: NONE, Method: STANDARD PLATE): inactive; negative; mutagenic call (Test System: AMES SALMONELLA TYPHIMURIUM, Strain/Indicator: TA102, Metabolic Activation: RAT, LIVER, S-9, AROCLOR 1254, Method: STANDARD PLATE): inactive; negative; mutagenic call (Test System: CHINESE HAMSTER OVARY, Strain/Indicator: CHO (HPRT)/6-THIOGUANINE, Metabolic Activation: NONE): inactive; negative; mutagenic call (Test System: CHINESE HAMSTER OVARY, Strain/Indicator: CHO (HPRT)/6-THIOGUANINE, Metabolic Activation: S-9): inactive; negative; mutagenic call (Test System: UDS HUMAN HEPATOCYTES, Strain/Indicator: THY INCORP, Metabolic Activation: NONE, Method: AUTORADIOGRAPHY): inactive; negative; mutagenic call (Test System: UDS MOUSE HEPATOCYTES, Strain/Indicator: THY INCORP, Metabolic Activation: NONE, Method: AUTORADIOGRAPHY): inactive; negative; mutagenic call (Test System: UDS RAT HEPATOCYTES, Strain/Indicator: THY INCORP, Metabolic Activation: NONE, Method: AUTORADIOGRAPHY): inactive; negative

Q: For `O=C1OCC(CCl)=C1Cl`, which mutagenic call [1] is on record?
A: The mutagenic call was “active; positive”.

Q: What does the source list for `CNS(=O)(=O)c1ccc(NC(C)=O)cc1`?
A: mutagenic call (Test System: AMES SALMONELLA TYPHIMURIUM, Strain/Indicator: TA98, Metabolic Activation: NONE, Method: PREINCUBATION): inactive; negative; mutagenic call (Test System: AMES SALMONELLA TYPHIMURIUM, Strain/Indicator: TA98, Metabolic Activation: RAT, LIVER, S-9, AROCLOR 1254, Method: PREINCUBATION): inactive; negative; mutagenic call (Test System: AMES SALMONELLA TYPHIMURIUM, Strain/Indicator: TA100, Metabolic Activation: NONE, Method: PREINCUBATION): inactive; negative; mutagenic call (Test System: AMES SALMONELLA TYPHIMURIUM, Strain/Indicator: TA100, Metabolic Activation: RAT, LIVER, S-9, AROCLOR 1254, Method: PREINCUBATION): inactive; negative

Q: Which mutagenic call [1] does the source give for `N#Cc1ccc(C(=O)ON(OCc2ccccc2)C(=O)c2ccccc2)cc1` here?
A: The mutagenic call was “active; positive”.

Q: And the mutagenic call (Test System: AMES SALMONELLA TYPHIMURIUM, Strain/Indicator: TA100, Metabolic Activation: RAT, S-9, AROCLOR, Method: STANDARD PLATE)?
A: Its mutagenic call is “active; positive”.

Q: `CN1CCc2cc3c(c4c2[C@H]1Cc1ccccc1-4)OCO3` was tested. Which mutagenic call (Test System: AMES SALMONELLA TYPHIMURIUM, Strain/Indicator: TA98, Metabolic Activation: RAT, LIVER, S-9, PHENOBARBITAL AND BETA-NAPHTHOFLAVONE, Method: PREINCUBATION) did it give?
A: Its mutagenic call is “active; positive”.

Q: And the mutagenic call (Test System: AMES SALMONELLA TYPHIMURIUM, Strain/Indicator: TA100, Metabolic Activation: RAT, LIVER, S-9, PHENOBARBITAL AND BETA-NAPHTHOFLAVONE, Method: PREINCUBATION)?
A: Its mutagenic call is “active; positive”.

Q: For `Nc1c(S(=O)(=O)O)cc(NC2CCCCC2)c2c1C(=O)c1ccccc1C2=O`, which mutagenic call [5] is on record?
A: The mutagenic call was “inactive; negative”.

Q: What about the mutagenic call [6] of the same compound?
A: Its mutagenic call is “inactive; negative”.

Q: What about the mutagenic call [1] of the same compound?
A: The mutagenic call was “inactive; negative”.

Q: What about the mutagenic call [2] of the same compound?
A: Its mutagenic call is “inactive; negative”.

Q: What about the mutagenic call [3] of the same compound?
A: Its mutagenic call is “inactive; negative”.

Q: What about the mutagenic call [4] of the same compound?
A: Its mutagenic call is “inactive; negative”.

Q: What about the mutagenic call [7] of the same compound?
A: Its mutagenic call is “inactive; negative”.

Q: And the mutagenic call [8]?
A: Its mutagenic call is “inactive; negative”.

Q: What about the mutagenic call (Test System: AMES SALMONELLA TYPHIMURIUM, Strain/Indicator: TA1538, Metabolic Activation: NONE, Method: STANDARD PLATE) of the same compound?
A: Its mutagenic call is “inactive; negative”.

Q: What about the mutagenic call (Test System: AMES SALMONELLA TYPHIMURIUM, Strain/Indicator: TA1538, Metabolic Activation: RAT, LIVER, S-9, AROCLOR 1254, Method: STANDARD PLATE) of the same compound?
A: Its mutagenic call is “inactive; negative”.

Q: Which results are given for `O=C(CCl)Nc1snc2ccc(Cl)cc12`?
A: mutagenic call [5]: inactive; negative; mutagenic call (Test System: AMES SALMONELLA TYPHIMURIUM, Strain/Indicator: TA98, Metabolic Activation: S-9, Method: STANDARD PLATE): active; positive; mutagenic call [1]: inactive; negative; mutagenic call (Test System: AMES SALMONELLA TYPHIMURIUM, Strain/Indicator: TA100, Metabolic Activation: S-9, Method: STANDARD PLATE): active; positive; mutagenic call [3]: inactive; negative; mutagenic call (Test System: AMES SALMONELLA TYPHIMURIUM, Strain/Indicator: TA1535, Metabolic Activation: S-9, Method: STANDARD PLATE): inactive; negative; mutagenic call [7]: active; positive; mutagenic call (Test System: AMES SALMONELLA TYPHIMURIUM, Strain/Indicator: TA1537, Metabolic Activation: S-9, Method: STANDARD PLATE): active; positive

Q: Which results are given for `N[C@@H]1C[C@H]1c1ccccc1`?
A: mutagenic call [5]: inactive; negative; mutagenic call [6]: inactive; negative; mutagenic call [1]: inactive; negative; mutagenic call [2]: inactive; negative; mutagenic call [3]: inactive; negative; mutagenic call [4]: inactive; negative; mutagenic call [7]: inactive; negative; mutagenic call [8]: inactive; negative
